Counter-ions that a name gives are not always drawn.

By IC50 is commonly meant the midpoint of a concentration-inhibition curve.

In the assay the target is T1, human GluN1/GluN2B NMDA receptors (Homo sapiens, UniProt Q13224).
T1 construct: expressed in transfected cells
T1 sequence (Q13224 27-1484, other chains not shown): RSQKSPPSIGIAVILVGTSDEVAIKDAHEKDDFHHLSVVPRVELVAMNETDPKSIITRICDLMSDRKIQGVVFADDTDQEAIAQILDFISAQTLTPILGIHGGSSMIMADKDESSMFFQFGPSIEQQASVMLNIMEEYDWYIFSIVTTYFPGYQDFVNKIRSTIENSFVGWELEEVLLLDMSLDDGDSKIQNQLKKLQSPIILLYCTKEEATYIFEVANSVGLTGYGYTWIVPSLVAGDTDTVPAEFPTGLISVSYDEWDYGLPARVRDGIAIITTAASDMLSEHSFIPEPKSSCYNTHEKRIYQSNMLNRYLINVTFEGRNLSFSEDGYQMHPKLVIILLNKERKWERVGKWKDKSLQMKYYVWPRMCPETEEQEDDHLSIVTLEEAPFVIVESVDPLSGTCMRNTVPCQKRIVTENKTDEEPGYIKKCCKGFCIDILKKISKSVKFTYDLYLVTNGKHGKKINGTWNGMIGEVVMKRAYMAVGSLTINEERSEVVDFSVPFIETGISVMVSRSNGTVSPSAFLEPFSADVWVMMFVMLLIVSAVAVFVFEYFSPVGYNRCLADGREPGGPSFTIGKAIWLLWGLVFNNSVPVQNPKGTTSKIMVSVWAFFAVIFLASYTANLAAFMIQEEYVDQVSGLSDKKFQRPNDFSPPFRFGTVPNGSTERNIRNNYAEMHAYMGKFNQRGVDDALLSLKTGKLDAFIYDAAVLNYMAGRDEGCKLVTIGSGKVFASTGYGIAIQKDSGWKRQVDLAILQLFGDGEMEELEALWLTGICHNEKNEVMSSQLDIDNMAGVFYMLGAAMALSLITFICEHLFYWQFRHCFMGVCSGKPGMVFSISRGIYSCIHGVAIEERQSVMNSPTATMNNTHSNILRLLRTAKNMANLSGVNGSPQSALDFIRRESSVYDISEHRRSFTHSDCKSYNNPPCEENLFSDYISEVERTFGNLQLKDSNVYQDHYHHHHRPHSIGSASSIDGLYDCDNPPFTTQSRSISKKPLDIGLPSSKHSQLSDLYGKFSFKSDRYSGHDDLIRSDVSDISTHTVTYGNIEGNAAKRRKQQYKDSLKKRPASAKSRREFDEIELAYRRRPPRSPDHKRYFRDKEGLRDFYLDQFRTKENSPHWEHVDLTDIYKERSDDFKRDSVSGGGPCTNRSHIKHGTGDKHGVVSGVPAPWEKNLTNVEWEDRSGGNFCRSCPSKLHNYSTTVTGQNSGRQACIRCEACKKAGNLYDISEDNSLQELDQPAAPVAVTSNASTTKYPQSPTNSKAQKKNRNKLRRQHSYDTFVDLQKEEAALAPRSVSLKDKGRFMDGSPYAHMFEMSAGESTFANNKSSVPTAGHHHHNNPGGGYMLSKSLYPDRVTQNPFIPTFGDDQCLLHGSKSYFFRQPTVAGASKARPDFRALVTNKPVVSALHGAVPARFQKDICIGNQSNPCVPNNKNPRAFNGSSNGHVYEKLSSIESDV
Briefly: Calcium flux (FLIPR) assay on cloned human NR1/GluN2B ion channels expressed in mammalian cells (standard and HTS variants). It counts as cell-based. Particulars: cells expressing human GluN1/GluN2B, glutamate and glycine co-agonists. As to the method:
Effects of Test Articles on Cloned Human NR1/GuN2B Ion Channels Expressed in Mammalian Cells
NMDA receptors are ion channels that are highly permeable to Ca^2+ ions, rendering it possible to monitor NMDA receptor function using cell-based calcium flux assay. In this assay, co-agonists glutamate and glycine are added to cells heterologously expressing human GluN1/GluN2B NMDA receptors to initiate cellular Ca^2+ influx. The time course of the changes in intracellular calcium is measured using a fluorescent dye and a FLIPR (Fluorometric Imaging Plate Reader) device.
Twenty-four hours before measurements, the expression of the NMDA receptors in the stable cell line is induced with Tet-On inducible system in the presence of a non-selective NMDA receptor blocker. On the day of the experiment, cell culture media is carefully washed, and the cells are loaded with Calcium 5 Dye Kit (Molecular Devices) in dye loading buffer containing 137 mM NaCl, 4 mM KCl, 2 mM CaCl2, 0.5 mM MgCl2 (standard assay) or 1.5 mM MgCl2 (HTS assay), 10 mM HEPES and 5 mM D-glucose; pH 7.4. After 1 h incubation at the room temperature, the dye is washed away with the assay buffer (137 mM NaCl (standard assay) or 150 mM (HTS assay), 4 mM KCl (standard assay) or 3 mM (HTS assay), 2 mM CaCl2), 0.01 mM EDTA, 10 mM HEPES and 5 mM D-glucose; pH 7.4) In the FLIPR TETRA reader, various concentrations of the test compounds are added to the cells for 5 min while fluorescence is monitored to detect potential agonist activity. Next, co-agonists, glutamate and glycine are added for another 5 minutes. The concentration of glutamate corresponding to ˜EC40 (standard assay) or EC40 (HTS assay) is used to maximize the assay's signal window and ability to detect NMDA receptor antagonists and negative allosteric modulators. A saturating concentration (10 μM) of glycine is also present in the assay. A non-selective NMDA receptor antagonist, (+)MK-801 is used as a positive control for antagonist activity. The fluorescent signal in the presence of test compounds is quantified and normalized to the signal defined by the appropriate control wells.
A general note: Calcium flux is commonly read through the fluorescence of an indicator in the cells.
Take `OCc1nnc(Cn2ncc3ncc(-c4ccc(F)c(C(F)F)c4)cc32)o1` [Example 292, (5-((6-(3-(Difluoromethyl)-4-fluorophenyl)-1H-pyrazolo[4,3-b]pyridin-1-yl)methyl)-1,3,4-oxadiazol-2-yl)methanol]: the IC50 amounted to 170 nM.
The result for `Cc1nc(Cn2ncc3ncc(-c4cccc(C(F)(F)F)c4)cc32)no1` [Example 86, 5-Methyl-3-[[6-[3-(trifluoromethyl)phenyl]pyrazolo[4,3-b]pyridin-1-yl]methyl]-1,2,4-oxadiazole] reads 202 nM; that for `Cc1cc(Cn2ncc3ncc(-c4cccc(C(F)(F)F)c4)cc32)no1` [Example 47, 5-Methyl-3-[[6-[3-(trifluoromethyl)phenyl]pyrazolo[4,3-b]pyridin-1-yl]methyl]isoxazole], 148 nM; that for `Cc1ccncc1Cn1ncc2ncc(-c3ccc(F)c(F)c3)cc21` [Example 190, 6-(3,4-Difluorophenyl)-1-[(4-methyl-3-pyridyl)methyl]pyrazolo[4,3-b]pyridine trifluoroacetate salt], 158 nM.
For the molecule `Cc1nccc(Cn2ncc3ncc(-c4ccc(F)c(OC(F)F)c4)cc32)n1` [Example 284, 6-[3-(Difluoromethoxy)-4-fluoro-phenyl]-1-[(2-methylpyrimidin-4-yl)methyl]pyrazolo[4,3-b]pyridine], the IC50 was found to be 942 nM.
For the molecule `Fc1ccc(-c2cnc3cnn(Cc4ccccn4)c3c2)cc1C(F)F` [Example 197, 6-[3-(Difluoromethyl)-4-fluoro-phenyl]-1-(2-pyridylmethyl)pyrazolo[4,3-b]pyridine], the IC50 worked out at 130 nM.
The figure for `COc1cccc(-c2cnc3cnn(Cc4ccc(F)nc4)c3c2)c1` [Example 155, 1-[(6-Fluoro-3-pyridyl)methyl]-6-(3-methoxyphenyl)pyrazolo[4,3-b]pyridine] is 1650 nM; for `CC(F)(F)c1cc(-c2cnc3cnn(Cc4cncc(C#N)c4)c3c2)ccc1Cl` [Example 236, 5-[[6-[4-Chloro-3-(1,1-difluoroethyl)phenyl]pyrazolo[4,3-b]pyridin-1-yl]methyl]pyridine-3-carbonitrile] it is 494 nM.
The result for `CC(=O)Nc1nnc(Cn2ncc3ncc(-c4ccc(F)c(C(F)F)c4)cc32)s1` [Example 128, N-(5-((6-(3-(Difluoromethyl)-4-fluorophenyl)-1H-pyrazolo[4,3-b]pyridin-1-yl)methyl)-1,3,4-thiadiazol-2-yl)acetamide] reads more than 2990 nM; that for `FC(F)(F)c1cccc(-c2cnc3cnn(Cc4cocn4)c3c2)c1` [Example 46, 4-[[6-[3-(Trifluoromethyl)phenyl]pyrazolo[4,3-b]pyridin-1-yl]methyl]oxazole], 538 nM; that for `FC(F)(F)c1cccc(-c2cnc3cnn(Cc4ccccn4)c3c2)c1` [Example 162, 1-(2-Pyridylmethyl)-6-[3-(trifluoromethyl)phenyl]pyrazolo[4,3-b]pyridine], 930 nM.
With `Cc1cc(-c2cnc3cnn(Cc4cncc(F)c4)c3c2)ccc1F` [Example 183, 6-(4-Fluoro-3-methyl-phenyl)-1-[(5-fluoro-3-pyridyl)methyl]pyrazolo[4,3-b]pyridine], the IC50 was determined as 21 nM.
The result for `Cc1ncc(Cn2ncc3ncc(-c4ccc(F)c(C)c4F)cc32)o1` [Example 63, 5-[[6-(2,4-Difluoro-3-methyl-phenyl)pyrazolo[4,3-b]pyridin-1-yl]methyl]-2-methyl-oxazole] reads 268 nM.
With `COc1ccc(Cn2ncc3ncc(-c4ccc(F)c(OC(F)F)c4)cc32)cn1` [Example 227, 6-[3-(Difluoromethoxy)-4-fluoro-phenyl]-1-[(6-methoxy-3-pyridyl)methyl]pyrazolo[4,3-b]pyridine], the IC50 was determined as 1620 nM.
As for `CC(F)(F)c1cc(-c2cnc3cnn(Cc4cccnn4)c3c2)ccc1F` [Example 260, 6-[3-(1,1-Difluoroethyl)-4-fluoro-phenyl]-1-(pyridazin-3-ylmethyl)pyrazolo[4,3-b]pyridine], the IC50 amounted to 162 nM.
With `Fc1cncc(Cn2ncc3ncc(-c4ccc(F)c(C(F)(F)F)c4)cc32)c1` [Example 233, 1-[(5-Fluoro-3-pyridyl)methyl]-6-[4-fluoro-3-(trifluoromethyl)phenyl]pyrazolo[4,3-b]pyridine], the IC50 was 75 nM.
On to `Cc1ncccc1Cn1ncc2ncc(-c3cccc(C(F)(F)F)c3)cc21` [Example 166, 1-[(2-Methyl-3-pyridyl)methyl]-6-[3-(trifluoromethyl)phenyl]pyrazolo[4,3-b]pyridine], for which the IC50 came out at 870 nM.
`COc1ccc(Cn2ncc3ncc(-c4cccc(C(F)(F)F)c4)cc32)cc1` [Example 24, 1-[(4-Methoxyphenyl)methyl]-6-[3-(trifluoromethyl)phenyl]pyrazolo[4,3-b]pyridine hydrochloride salt]: the IC50 is 7930 nM.
For the molecule `COc1ncccc1Cn1ncc2ncc(-c3ccc(F)c(C(F)F)c3)cc21` [Example 206, 6-[3-(Difluoromethyl)-4-fluoro-phenyl]-1-[(2-methoxy-3-pyridyl)methyl]pyrazolo[4,3-b]pyridine], the IC50 is 307 nM.
For `COc1cncc(Cn2ncc3ncc(-c4ccc(F)cc4)cc32)c1` [Example 150, 6-(4-Fluorophenyl)-1-[(5-methoxy-3-pyridyl)methyl]pyrazolo[4,3-b]pyridine], the IC50 was found to be 410 nM.
The figure for `Fc1ccc(Cn2ncc3ncc(-c4ccc(F)c(C(F)F)c4)cc32)cn1` [Example 201, 6-(3-(Difluoromethyl)-4-fluorophenyl)-1-((6-fluoropyridin-3-yl)methyl)-1H-pyrazolo[4,3-b]pyridine] is 16 nM.
As to `Cc1nnc(Cn2nc(C)c3ncc(-c4ccc(F)c(C(F)F)c4)cc32)s1` [Example 124, 2-[[6-[3-(Difluoromethyl)-4-fluoro-phenyl]-3-methyl-pyrazolo[4,3-b]pyridin-1-yl]methyl]-5-methyl-1,3,4-thiadiazole], the IC50 is 66 nM.
For the molecule `FC(F)(F)c1cncc(Cn2ncc3ncc(-c4cccc(C(F)(F)F)c4)cc32)c1` [Example 175, 6-[3-(Trifluoromethyl)phenyl]-1-[[5-(trifluoromethyl)-3-pyridyl]methyl]pyrazolo[4,3-b]pyridine], the IC50 was 2300 nM.
Turning to `Cc1cc(-c2cnc3cnn(Cc4cccnn4)c3c2)ccc1Cl` [Example 267, 6-(4-Chloro-3-methyl-phenyl)-1-(pyridazin-3-ylmethyl)pyrazolo[4,3-b]pyridine], the IC50 came to 404 nM.
In the case of `Cc1cncc(Cn2ncc3ncc(-c4cc(C)cs4)cc32)c1` [Example 138, 1-[(5-Methyl-3-pyridyl)methyl]-6-(4-methyl-2-thienyl)pyrazolo[4,3-b]pyridine], the IC50 came to 159 nM.
Turning to `Cc1nnc(Cn2nc(F)c3ncc(-c4ccc(Cl)c(OC(F)F)c4)cc32)o1` [Example 117, 2-[[6-[4-Chloro-3-(difluoromethoxy)phenyl]-3-fluoro-pyrazolo[4,3-b]pyridin-1-yl]methyl]-5-methyl-1,3,4-oxadiazole], the IC50 was 655 nM.
For `N#Cc1cccc(Cn2ncc3ncc(-c4cccc(C(F)(F)F)c4)cc32)c1` [Example 23, 3-[[6-[3-(Trifluoromethyl)phenyl]pyrazolo[4,3-b]pyridin-1-yl]methyl]benzonitrile], the IC50 amounted to 400 nM.
On to `Cc1cncc(Cn2ncc3ncc(-c4ccc(F)c(F)c4)cc32)c1` [Example 189, 6-(3,4-Difluorophenyl)-1-[(5-methyl-3-pyridyl)methyl]pyrazolo[4,3-b]pyridine], for which the IC50 was found to be 70 nM.
The result for `CC(F)(F)c1cc(-c2cnc3cnn(Cc4cncc(Cl)c4)c3c2)ccc1F` [Example 221, 1-[(5-Chloro-3-pyridyl)methyl]-6-[3-(1,1-difluoroethyl)-4-fluoro-phenyl]pyrazolo[4,3-b]pyridine] reads 64 nM; that for `Cc1nnc(Cn2ncc3ncc(-c4ccc(Cl)c(C(F)F)c4)cc32)s1` [Example 131, 2-[[6-[4-Chloro-3-(difluoromethyl)phenyl]pyrazolo[4,3-b]pyridin-1-yl]methyl]-5-methyl-1,3,4-thiadiazole], 57 nM; that for `Fc1cncc(Cn2ncc3ncc(-c4ccc(F)c(OC(F)F)c4)cc32)c1` [Example 225, 6-[3-(Difluoromethoxy)-4-fluoro-phenyl]-1-[(5-fluoro-3-pyridyl)methyl]pyrazolo[4,3-b]pyridine], 39 nM.
Regarding `Cc1cc(-c2cnc3cnn(Cc4nnc(C(F)(F)F)o4)c3c2)ccc1F` [Example 91, 2-[[6-(4-Fluoro-3-methyl-phenyl)pyrazolo[4,3-b]pyridin-1-yl]methyl]-5-(trifluoromethyl)-1,3,4-oxadiazole], the IC50 was found to be 145 nM.
For `FC(F)(F)c1cccc(-c2cnc3cnn(Cc4ccccc4)c3c2)c1` [Example 21, 1-Benzyl-6-[3-(trifluoromethyl)phenyl]pyrazolo[4,3-b]pyridine hydrochloride salt], the IC50 was 3280 nM.

Values taken from patent US11530210B2, “Substituted heteroaromatic pyrazolo-pyridines and their use as GLUN2B receptor modulators” (JANSSEN PHARMACEUTICA NV, priority 2019, dated 2022).
